Assay results reported in patent publication US20060009463A1, “N-(3-rifamycinyl)-carbamates, method of preparing them and their use for treating and preventing tuberculosis” (priority 2002, published 2006).

Key:
[1] = tested on: Bacillus subtilis ATCC 6633; test: double-dosage method of diffusion in agar; format: cell-based; details: for relative activity, Bacillus subtilis ATCC 6633: activity of rifampicin taken as 1000, agar diffusion, 5 and 10 μg/ml, pH 7.4; for antibiotic activity compared with rifampicine (in words): against Bacillus subtilis
M. tuberculosis H37Rv = test: ex vivo anti-mycobacterial activity, growth in mouse macrophages; format: cell-based, Mycobacterium tuberculosis; details: for Macrophage Data, Monolayer 1 / Macrophage Data, Monolayer 2 / Macrophage Data, Monolayer 3 / Macrophage Data, Monolayer 4 / Macrophage Data, Monolayer mean: J774 mouse macrophages infected with M. tuberculosis H37Rv; for Macrophage Data, Monolayer 1 / Macrophage Data, Monolayer 2 / Macrophage Data, Monolayer 3 / Macrophage Data, Monolayer 4: 24 hours with compound; for in vitro and ex vivo activity against Mycobacterium tuberculosis compared with rifampicine (in words): general statement of the description; for Macrophage Data, Monolayer mean: mean of monolayers 1-4, 24 hours
Escherichia coli = test: double-dosage method of diffusion in agar; details: for relative activity, Escherichia coli: activity of rifampicin taken as 1000, agar diffusion, 5 and 10 μg/ml, pH 7.4
Procedure: (§1) This test is based on the logarithmic dependence between the size of the inhibition area associated with the bacterial growth in a layer of agar (response) and the quantity of the applied antibiotic.
(§2) From these solutions buffered solutions were prepared in phosphate buffer, pH 7.4 at concentrations of 5 and 10 μg/ml.
(§3) An initial suspension of the test microorganism (Bacillus subtilis ATCC 6633, Escherichia coli, Bacillus mycoide, Klebsiella pneumoniae, Pseudomonas aeruginosa) was prepared having a UV-light transmission of about 25%. A suitable diffusion medium (for example for Bacillus subtilis: 1 g pepton, 3 g yeast extract, 15-18 g agar, in 1 l water, pH 7.8-8.0 after sterilization) was inoculated with 0.5 ml of the initial suspension per 100 ml medium at a temperature of 60-65° C. 20 ml of the mixture each was filled into Petri's dishes (diameter 100 mm). After hardening of the medium four pits (diameter 5 mm) were placed in each dish and onto every pit 90 μl of the solutions of the reference and the tested compounds were added. The dishes were incubated at 37° C. for at least 15 hours. The sizes (diameters) of the areas of inhibition were then measured with an accuracy of 0.1 mm.
(§4) The activity A was calculated according to • lg A=(lv/w) with • I=lg (high concentration/low concentration), • v=(ΣX1+ΣX2)−(ΣP1+ΣP2), and • w=(ΣX2+ΣP2)−(ΣX1+ΣP1), with • X1: area size in mm at low concentration of the sample, • X2: area size in mm at high concentration of the sample, • P1: area size in mm at low concentration of the reference, • P2: area size in mm at low concentration of the reference,

Bacillus mycoide = test: double-dosage method of diffusion in agar; details: activity of rifampicin taken as 1000, 5 and 10 μg/ml, pH 7.4
Procedure: as §1, §2
An initial suspension of the test microorganism (Bacillus subtilis ATCC 6633, Escherichia coli, Bacillus mycoide, Klebsiella pneumoniae, Pseudomonas aeruginosa) was prepared having a UV-light transmission of about 25%. A suitable diffusion medium (for example for Bacillus subtilis: 1 g pepton, 3 g yeast extract, 15-18 g agar, in 1 l water, pH 7.8-8.0 after sterilization) was inoculated with 0.5 ml of the initial suspension per 100 ml medium at a temperature of 60-65° C. 20 ml of the mixture each was filled into Petri's dishes (diameter 100 mm). […] The sizes (diameters) of the areas of inhibition were then measured with an accuracy of 0.1 mm.
as §4

Klebsiella pneumoniae = test: double-dosage method of diffusion in agar; details: for relative activity, Klebsiella pneumoniae: activity of rifampicin taken as 1000, agar diffusion, 5 and 10 μg/ml, pH 7.4
Procedure: as §1, §2, §3, §4

Pseudomonas aeruginosa = test: double-dosage method of diffusion in agar; details: for relative activity, Pseudomonas aeruginosa: activity of rifampicin taken as 1000, agar diffusion, 5 and 10 μg/ml, pH 7.4
Procedure: as §1, §2, §3, §4

Compound	relative activity, Bacillus subtilis ATCC 6633 [1]	antibiotic activity compared with rifampicine (in words) [1]	Macrophage Data, Monolayer 1 (M. tuberculosis H37Rv)	Macrophage Data, Monolayer 2 (M. tuberculosis H37Rv)	Macrophage Data, Monolayer 3 (M. tuberculosis H37Rv)	Macrophage Data, Monolayer 4 (M. tuberculosis H37Rv)	in vitro and ex vivo activity against Mycobacterium tuberculosis compared with rifampicine (in words) (M. tuberculosis H37Rv)	Macrophage Data, Monolayer mean (M. tuberculosis H37Rv)	relative activity, Escherichia coli (Escherichia coli)	relative activity, Bacillus mycoide (Bacillus mycoide)	relative activity, Klebsiella pneumoniae (Klebsiella pneumoniae)	relative activity, Pseudomonas aeruginosa (Pseudomonas aeruginosa)	antibiotic activity compared with rifampicine (in words) ([1]; listed as N-(methyloxycarbonyl)-3-aminorifamycin S)	antibiotic activity compared with rifampicine (in words) ([1]; listed as methyl)	antibiotic activity compared with rifampicine (in words) (Escherichia coli; against E. coli)	antibiotic activity compared with rifampicine (in words) (Klebsiella pneumoniae; against K. pneumoniae)	antibiotic activity compared with rifampicine (in words) (Pseudomonas aeruginosa; against P. aeruginosa)
COC1C=COC2(C)Oc3c(C)c(O)c4c(c3C2=O)C(=O)C(NC(=O)OCCBr)=C(NC(=O)C(C)=CC=CC(C)C(O)C(C)C(O)C(C)C(OC(C)=O)C1C)C4=O (stereo not drawn) [R = 2-bromoethyl, N-(2-Bromoethyloxycarbonyl)-3-aminorifamicin S]	6600	about six times higher than rifampicine	–	–	–	–	–	–	–	–	–	–	–	–	–	–	–
COC1C=COC2(C)Oc3c(C)c(O)c4c(c3C2=O)C(=O)C(NC(=O)OCc2ccc([N+](=O)[O-])cc2)=C(NC(=O)C(C)=CC=CC(C)C(O)C(C)C(O)C(C)C(OC(C)=O)C1C)C4=O (stereo not drawn) [R = 4-nitrobenzyl, N-(4-Nitrobenzyloxycarbonyl)-3-aminorifamicin S]	5400	about six times higher than rifampicine	–	–	–	–	–	–	–	–	–	–	–	–	–	–	–
CCOC(=O)NC1=C2NC(=O)C(C)=CC=CC(C)C(O)C(C)C(O)C(C)C(OC(C)=O)C(C)C(OC)C=COC3(C)Oc4c(C)c(O)c(c(c4C3=O)C1=O)C2=O (stereo not drawn) [R = ethyl, N-(Ethyloxycarbonyl)-3-aminorifamycin S]	2050	–	0.00 CFU/ml	200.00 CFU/ml	0.00 CFU/ml	0.00 CFU/ml	at least as high or even higher as the activity of rifampicine	50.00 CFU/ml	690	1150	1030	920	–	–	–	–	–
COC(=O)NC1=C2NC(=O)C(C)=CC=CC(C)C(O)C(C)C(O)C(C)C(OC(C)=O)C(C)C(OC)C=COC3(C)Oc4c(C)c(O)c(c(c4C3=O)C1=O)C2=O (stereo not drawn) [R = methyl, N-(Methyloxycarbonyl)-3-aminorifamycin S]	6000	–	0.00 CFU/ml	0.00 CFU/ml	0.00 CFU/ml	200.00 CFU/ml	at least as high or even higher as the activity of rifampicine	50.00 CFU/ml	2100	2000	1900	1750	twice as high as rifampicine	about six times higher than rifampicine	twice as high as rifampicine	twice as high as rifampicine	twice as high as rifampicine
CO[C@H]1/C=C/O[C@@]2(C)Oc3c(C)c(O)c4c(O)c(c(/C=N/N5CCN(C)CC5)c(O)c4c3C2=O)NC(=O)/C(C)=C\C=C\[C@H](C)[C@H](O)[C@@H](C)[C@@H](O)[C@@H](C)[C@H](OC(C)=O)[C@@H]1C [rifampicine, reference compound]	–	–	0.00 CFU/ml	200.00 CFU/ml	600.00 CFU/ml	800.00 CFU/ml	–	400.00 CFU/ml	–	–	–	–	–	–	–	–	–
